Measurements taken from patent EP0133534A2, “Pyridyl compounds” (THE WELLCOME FOUNDATION LIMITED, priority 1983, dated 1985).

How the values were obtained:
[1] = tested on: histamine; conditions: metabolite of triprolidine in man; known from prior art; cited from earlier work
[2] = tested on: histamine; test: In vitro antihistaminic activity: shift of histamine concentration-response curves in isolated guinea-pig ileum longitudinal muscle (Schild plot); format: biochemical, guinea-pigs; conditions: negative log of molar antagonist concentration shifting the control histamine concentration-response curve 2X to the right; tissue incubated one hour with test compound; 60 min
Experimental: A.Invitro antihistaminic activity: The longitudinal muscle was isolated from the intact ileum of guinea-pigs (Harley, male 250-400 g) and placed in an organ bath under 300 mg tension. After one hour of equilibration, cumulative concentration-response curves (Van Rossum, J.M., Arch. Int. Pharmacodyn. Ther. 143 299-330,1963) to histamine were obtained. Following washing, the tissues were incubated for one hour with the test compound and then a second histamine concentration-response curve was run. Shifts to the right of the agonist concentration-response curve produced by the antagonists were used to construct Schild plots (Arunlakshana, O. and Schild, H.O., Br. J. Pharmacol: 14, 48-58, 1959). Regression of Log (dr-1) on Log/B/, where dr is an equiactive response in the presence and absence of antagonist and /B/ is the molar concentration of antagonist, allowed an estimate of pA2, i.e. the negative log of the. concentration of antagonist which shifts the control histamine concentration-response curve 2X to the right.
The antihistaminic activities of compounds of the present invention are detailed in table A below.

Compound	antihistamine activity [1]	pA2 [2]
O=C(O)c1ccc(/C(=C\CN2CCCC2)c2ccccn2)cc1 [(E)-1-(4-carboxyphenyl)-1-(2-pyridyl)-3-pyrrolidinoprop-1-ene]	little or no antihistamine activity	
Cc1ccc(/C(=C\CN2CCCC2)c2cccc(/C=C/c3nnn[nH]3)n2)cc1 [Example 1, 5-(E-6-[3-pyrrolidino-1-(4-tolyl)prop-1E-enyl]-2-pyridylvinyl)-1H-tetrazole]		8.7
O=S(=O)(O)c1cccc(/C(=C/CN2CCCC2)c2ccccc2)c1 [Example 2, (E)-3-(1-phenyl-3-pyrrolidinoprop-1-enyl)-benzenesulphonic Acid]		7.1
O=S(=O)(O)c1cccc(C(CCN2CCCC2)c2ccccc2)c1 (stereo not shown) [Example 3, 3-(1-phenyl-3-pyrrolidinopropyl) benzenesulphonic acid]		7.3
